According to publication PMC11165727, “Improvement effects of a novel Chinese herbal formula in imiquimod and IL-23-stimulated mouse models of psoriasis” (Chinese Medicine, 2024):
Values belong to the molecule of their own block, whether it stands above or below them.

Experiments:
[1] = Pharmacokinetics of ISDF in rats: berberine in erythrocytes; assay type: in vivo, Sprague–Dawley rats; conditions: oral ISDF 18.90 g/kg
Procedure: The rats were split into two groups, with 6 animals each: (a) an untreated control group, and (b) a group that received ISDF at a dosage of 18.90 g/kg. The rats were fasted overnight but had access to distilled water. Blood samples, around 0.4 mL, were harvested from the orbital bleeding while they were under anaesthesia with isoflurane. The blood samples were collected at several time points (5, 15, 30, 60, 120, 240, 480, and 1440 min) after the oral administration of ISDF to the rats. The blood was then centrifuged at 5000 rpm for 20 min (at 4 °C) to separate the plasma (upper) and blood cells (lower). The blood cells were washed thrice with cold 0.9% saline, and then centrifuged at 3500 rpm for five min. The resulting erythrocytes were suspended in cold 0.9% saline (0.5 mL). Afterwards, the erythrocytes were mixed with an equal volume of 15% hydrochloric acid and heated at 60 ℃ for 6 h. They were then centrifugated at 12,000 rpm for 10 min to collect the supernatant, which was filtered and dried under nitrogen. Finally, it was re-dissolved with 0.2 mL methanol. The HPLC method was used to identify and quantify baicalin in plasma and berberine in erythrocytes, as previously published. All the data were shown as mean ± SEM. One-way ANOVA followed by the Bonferroni test was performed using GraphPad Prism v9.0. Statistical significance between experimental groups was considered when p < 0.05. The pharmacokinetics profile of ISDF was calculated using Drug and Statistics (DAS, China) software v2.0.

[2] = Pharmacokinetics of ISDF in rats: baicalin in plasma; assay type: in vivo, Sprague–Dawley rats; conditions: oral ISDF 18.90 g/kg
Procedure: The rats were split into two groups, with 6 animals each: (a) an untreated control group, and (b) a group that received ISDF at a dosage of 18.90 g/kg. The rats were fasted overnight but had access to distilled water. Blood samples, around 0.4 mL, were harvested from the orbital bleeding while they were under anaesthesia with isoflurane. The blood samples were collected at several time points (5, 15, 30, 60, 120, 240, 480, and 1440 min) after the oral administration of ISDF to the rats. The blood was then centrifuged at 5000 rpm for 20 min (at 4 °C) to separate the plasma (upper) and blood cells (lower). The plasma (0.2 mL) was added with […] KH2PO4 (0.2 mL) and 1 mL methanol and acetonitrile (1:1) and vortexed for 10 min to precipitate protein, and then centrifugated at 10,000 rpm for five min to collect the supernatant. The supernatant was filtered, dried under nitrogen and then re-dissolved in methanol (0.2 mL) and stored at 4 °C [18]. The HPLC method was used to identify and quantify baicalin in plasma and berberine in erythrocytes, as previously published. All the data were shown as mean ± SEM. One-way ANOVA followed by the Bonferroni test was performed using GraphPad Prism v9.0. Statistical significance between experimental groups was considered when p < 0.05. The pharmacokinetics profile of ISDF was calculated using Drug and Statistics (DAS, China) software v2.0.

[3] = tested on: IL-17A, IL-22, IL-23; experiment: ELISA of cytokines in serum and injected skin of IL-23-induced mice; assay type: in vivo, C57 mice; conditions: IL-23 model; DXM 3 mg/kg oral; vs IL-23 group
Procedure: (§1) A total of 48 C57 mice were randomly assigned to: (a) NC group; (b) IL-23 group; (c) IL-23 plus DXM (3 mg/kg) group; and (d–f) IL-23 plus ISDF (3.15, 6.30 and 9.45 g/kg) groups. Firstly, mice were pre-treated with ISDF or DXM before IL-23 injection. 0.5% CMC-Na was used to suspend ISDF and DXM which were orally given to mice once daily for two weeks, and the mice in the NC group and the IL-23 group were treated with only the vehicle for two weeks. The IL-23 administration was initiated 7 days post the first ISDF/DXM treatment. From day 8, mice concurrently orally received with ISDF/DXM treatment and intradermal injections of recombinant mouse IL-23 (Biolegend, USA) in two locations on the shaved dorsal skin at 1 μg/mouse/day using a 30-gauge needle for seven days. Sterile saline was used as the vehicle control for the NC group. After the seven-day sensitization of IL-23, the psoriasis symptoms appeared on the dorsal area of the mice. The weight of the mice and their dorsal skin thickness was monitored (on day 1, 7, and 14). On the last day, the scoring of the skin psoriasis severity was determined according to PASI after the last drug treatment (Fig. 2A).
(§2) After the last drug treatment, blood samples were harvested and stored at room temperature for one hour, and then centrifuged at 3500 rpm for 20 min. The ELISA kits were used to collect the supernatant and determine the contents of IL-17A (ab199081), IL-22 (ab223857), IL-6 (ab222503) (Abcam, USA) and IL-23 (BMS6017, Thermo Fisher Scientific, USA). After being sacrificed, mouse skin tissues were collected, homogenized with cell extract buffer from Abcam, USA, and centrifuged at 12,000 rpm for 30 min (at 4 °C). The skin samples were analyzed for total protein contents using a […] assay kit. The concentrations of IL-4, IL-17A, IL-22 and IL-23 in the supernatant were determined.

[4] = tested on: gene expression of IL-4, IL-6, IL-1β and TNF-α; experiment: Real-time PCR on dorsal skin tissues of IMQ-induced mice; assay type: in vivo, Balb/c mice; conditions: IMQ model; DXM 3 mg/kg oral
Procedure: (§3) A total of 48 Balb/c mice were randomly assigned to: (a) normal control group (NC); (b) IMQ group; (c) IMQ plus dexamethasone (DXM, as the positive control, 3 mg/kg) group; and (d-f) IMQ plus ISDF (3.15, 6.30 and 9.45 g/kg) groups. All mice, except the NC group, were topically dosed with 62.5 mg Aldara (iNova pharmaceuticals, Australia) daily on the shaved dorsal skin. After the seven-day sensitization of IMQ, the psoriasis symptoms appeared on the dorsal area. Between day 8 and day 22, Aldara cream was applied once every three days for a total of six applications, with each application consisting of 62.5 mg of the cream being applied to the same area. ISDF and DXM were suspended in 0.5% CMC-Na and orally given to the mice once daily for two weeks. Treatments were initiated seven days after the first IMQ sensitization. The mice in the NC group and the IMQ group were administered with only the vehicle for two weeks. (Fig. 1A).
The same experimental procedure was used as described in our previous study. In the present study, we conducted Mouse TaqMan gene expression assays using the following assay IDs: IL-4 (Mm00445259_m1), IL-6 (Mm00446190_m1), IL-1β (Mm00434228_m1), TNF-α (Mm00443258_m1) and β-actin (Mm02619580_g1).

[5] = tested on: IL-17A, IL-22, IL-6, IL-4; experiment: ELISA of inflammatory cytokines in serum and dorsal skin of IMQ-induced mice; assay type: in vivo, Balb/c mice; conditions: IMQ model; DXM 3 mg/kg oral; vs IMQ group
Procedure: as §3, §2

[6] = tested on: IL-23-induced mouse psoriasis model; experiment: IL-23-induced mouse psoriasis model: body weight, dorsal skin thickness, PASI, epidermal thickness; assay type: in vivo, C57 mice; conditions: IL-23 model, DXM 3 mg/kg oral
Procedure: as §1
(§4) The severity of psoriatic lesions on the dorsal area of mice was assessed by psoriasis area and severity index (PASI). The researcher scored the degree of erythema and skin scaling on a scale of zero to four, where 0: no symptoms, 1: slight, 2: moderate, 3: severe, and 4: very severe. The dorsal skin thickness was measured using an electronic vernier caliper which was placed on the middle line of the dorsal area.
(§5) The dorsal skin tissues were harvested and fixed in 4% paraformaldehyde (PFA) for one day and then embedded in paraffin, followed by section, deparaffinization and rehydration. Five-micrometre sections of dorsal skin were stained with hematoxylin & eosin and observed through a light microscope (Zeiss AxioObserver Z1, Germany) to assess histopathological changes.

[7] = tested on: IMQ-induced mouse psoriasis model; experiment: IMQ-induced mouse psoriasis model: body weight, dorsal skin thickness, PASI, epidermal thickness; assay type: in vivo, Balb/c mice
Procedure: as §3, §4, §5

[8] = Sprague-Dawley, rat, 18.9 g/kg, read-out: Area under the curve (AUC0-∞)
[9] = Sprague-Dawley, rat, 18.9 g/kg, read-out: Mean residence time (MRT0-t)
[10] = Sprague-Dawley, rat, 18.9 g/kg, read-out: The maximum concentration (Cmax)

AUC(0-inf) [1, 8]: 24200 ± 17400 ng·h/mL
MRT last [1, 9]: 9.24 ± 1.31 h
Cmax [1, 10]: 1440 ± 710 ng/mL
The time required for drug concentration to decrease by 50% (t1/2) [1]: 10.77 ± 5.80 h
Time to reach Cmax (Tmax) [1]: 2.33 ± 1.52 h
SMILES: COc1ccc2cc3[n+](cc2c1OC)CCc1cc2c(cc1-3)OCO2 [Berberine, berberine]

SMILES: O=C(O)[C@H]1O[C@@H](Oc2cc3oc(-c4ccccc4)cc(=O)c3c(O)c2O)[C@H](O)[C@@H](O)[C@@H]1O [Baicalin, baicalin]
AUC(0-inf) [2, 8]: 10000 ± 810 ng·h/mL
MRT last [2, 9]: 7.98 ± 0.61 h
Cmax [2, 10]: 670 ± 60 ng/mL
The time required for drug concentration to decrease by 50% (t1/2) [2]: 14.06 ± 3.25 h
Time to reach Cmax (Tmax) [2]: 2.01 ± 0.28 h

SMILES: C[C@@H]1C[C@H]2[C@@H]3CCC4=CC(=O)C=C[C@]4(C)[C@@]3(F)[C@@H](O)C[C@]2(C)[C@@]1(O)C(=O)CO [DXM, dexamethasone]
Decrease of IL-23 level in the injected skin [3]: 43.34%
Reduction of serum IL-17A [3]: 62.20%
Reduction of serum IL-22 content [3]: 39.12%
Gene expression of IL-4, IL-6, IL-1β and TNF-α in skin [4]: substantially down-regulate
Decrease of serum IL-17A [5]: 91.29%
Reduction of IL-17A content in dorsal skin [5]: 75.98%
Reduction of serum IL-6 [5]: 88.91%
Reduction of serum IL-22 [5]: 67.47%
Body weight [6]: significantly induced a body weight reduction
Decrease of dorsal skin thickness ([6]; day 14, vs IL-23 group): 55.14%
Reduction of PASI score ([6]; day 14, vs IL-23 group): 85.24%
Decrease of epidermal thickness ([6]; vs IL-23 group): 72.26%
Body weight ([7]; DXM 3 mg/kg oral once daily, days 14 and 21, vs NC group): remarkable decrease
Decrease in PASI score ([7]; DXM 3 mg/kg oral, day 21, vs IMQ group): 79.41%
Reduction of dorsal skin thickness ([7]; DXM 3 mg/kg oral, two-week treatment, vs IMQ group): 51.69%
Decrease of epidermal thickness ([7]; DXM 3 mg/kg oral, vs IMQ group): 52.75%
